Test results reported in paper PMC8204636 (ACS chemical biology, 2020).

Target: Cdk2 (Homo sapiens, UniProt P24941)
Assay: p-Cl-ANS fluorescent binding assay
Conditions: for cooperativity with the allosteric ANS site: based on p-Cl-ANS fluorescent binding studies; for effect on the binding (fluorescence) of p-Cl-ANS: orthosteric ligand titrated into Cdk2 with p-Cl-ANS

SMILES	cooperativity with the allosteric ANS site	effect on the binding (fluorescence) of p-Cl-ANS
Nc1ncnc2c1ncn2[C@@H]1O[C@H](COP(=O)(O)OP(=O)(O)OP(=O)(O)O)[C@@H](O)[C@H]1O [ATP]	only weakly cooperative, if at all	little effect
Nc1ncnc2c1ncn2[C@@H]1O[C@H](COP(=O)(O)OP(=O)(O)NP(=O)(O)O)[C@@H](O)[C@H]1O [AMP-PNP, adenylyl-imidodiphosphate]	only weakly cooperative, if at all	little effect
